US10046050B2, “Targeting immunotherapy for amyloidosis” (UNIVERSITY OF TENNESSEE RESEARCH FOUNDATION, priority 2014, dated 2018)

Columns and labels:
[1] = tested on: mAb 7D8; assay: ELISA binding of 7D8 to peptopes dried on microplates; conditions: both assays
Protocol: Peptides (p75-78 and control reagents; peptide 39 [CGGHEDT] (SEQ ID NO: 54), peptide 41 [CGGHEDTMADQE] (SEQ ID NO: 55) and peptide p5 (SEQ ID NO: 1), were prepared at 1 μg/ml in PBS and 50 μl was added to each well of 1 96-well microplate (Costar EIA/RIA high binding). The peptides were dried onto the well at 37° C. overnight. Sample wells were blocked for 1 h by addition of 200 μL of 1% BSA in PBS. Primary antibodies (7D8 or biotinylated 7D8) and secondary antibodies (biotinylated goat anti mouse) were added in 100 μL of a diluent of 1% BSA and 0.05% tween 20 in PBS. The 7D8 primary antibody was tested with a 1:2 dilution series beginning at 50 nM. A 1/3000 dilution of the secondary biotinylated goat anti-mouse IgG antibody (Sigma) was added for 1 h and the microplate washed. When the biotinylated 7D8 mAb was used the secondary antibody step was omitted. Binding was visualized by addition of a 1/1000 dilution of europium/streptavidin (Perkin Elmer) for 1 h and developed with enhancement solution (Perkin Elmer) before quantifying the signal using a time-resolved fluorescence plate reader (Wallac).

[2] = tested on: human Den ALλ amyloid; assay: Immunohistochemistry of biotinyl-7D8 on formalin-fixed tissue sections; format: binding; conditions: thyroid, label = pre-treatment peptide, or 7D8 alone
Protocol: (§1) The binding of biotinylated 7D8 mAb with autopsy-derived, formalin-fixed, paraffin-embedded tissue sections containing, ATTR, ALκ or ALλ was assessed immunohistochemically. Consecutive tissue sections were stained with: Congo red; biotinylated 7D8 alone; 7D8 with the control peptide p5; or, 7D8 mAb with peptope p75 pretreatment. Briefly, six μm-thick tissue sections were subjected to antigen retrieval by incubation in CitraPlus solution (BioGenex, San Ramon, Calif.) for 30 min at 90° C. Unlabeled peptope p75 was added to the tissue at ˜3 μg/mL and incubated overnight at 4° C. Unbound reagent was removed by washing in PBST for 30 min. Tissues sections (with or without peptope pretreatment) were immunostained by addition of 3 μg/mL biotinylated 7D8 mAb. Slides were developed by addition of streptavidin-HRP (Vectastain Elite ABC kit, Vector Labs) followed by 3,3′-diaminobezidene (Vector Labs) and examined using a Leica DM500 microscope.

[3] = tested on: human Tal ALκ amyloid; assay: as above; format: binding; conditions: kidney, label = pre-treatment peptide, or 7D8 alone
Protocol: as §1

[4] = tested on: human ATTR amyloid; assay: as above; format: binding; conditions: label = pre-treatment peptide, or 7D8 alone
Protocol: as §1

[5] = tested on: synthetic and naturally-occurring amyloid samples; assay: Pull down assay of ^125I-labeled peptides; format: binding
Protocol: To evaluate the binding of p66 and p5+14 to synthetic and naturally-occurring amyloid, peptides p66 or p5+14 were radiolabeled with iodine-125 (I-125, ^125I) using oxidation with chloramine T (1 mg/ml in water freshly made. Free 1-125 was removed from the reaction mixture by size exclusion chromatography using a Sephadex G-25 solid phase and a 0.1% (w/v) gelatin in PBS mobile phase. Fractions of ˜250 μl were collected and the radioactivity in each measured using a gamma counter (Packard Cobra II auto-gamma counter). Peptide fractions with peak radioactivity were pooled and used for the “pull-down” assays.
For the pull down assay, ^125I-labeled peptide binding to murine: (m) AA and wild type (WT) liver homogenates (25 μl); rVλ6Wil (AL), Aβ(1-40) and islet amyloid polypeptide (IAPP) synthetic fibrils (25 μg), and; transthyretin-associated (ATTR), ALκ4-Cab and ALλ1-Ship human amyloid extracts (50 μg). The ^125I-peptides were prepared in PBST (0.15 M NaCl) or PBST with 1 M NaCl. Ten μl (˜5 ng, ˜100,000 counts per min [cpm]) of the ^125I-peptide solution was added to each test sample in a 200 μl volume. The reaction mixtures were rotated for 1 h at RT, then centrifuged twice at 16,000×g for 10 min. After each step the supernatants were removed and collected in test tubes. The pellets, obtained following the second spin were resuspended in PBST. The radioactivity in both the supernatant and pellet samples were measured using a Packard Cobra II auto-gamma counter. The bound peptide, expressed as % total was calculated according to: Bound peptide (% total)=(Pellet cpm)/(Pellet cpm+Supernatant cpm)

[6] = biological target: T1, AA amyloid (Mus musculus, UniProt P05367); assay: In vivo pre-targeting of ^125I-11-1F4 to systemic AA amyloid; set-up: species or system mice; conditions: 24 h post injection of 11-1F4 mAb; peptide given 24 h before mAb
T1 construct: from tissue; host or cells: organs of living H2-L^d-huIL-6 Tg Balb/c mice after AEF injection
T1 sequence (P05367 20-94 limits assumed): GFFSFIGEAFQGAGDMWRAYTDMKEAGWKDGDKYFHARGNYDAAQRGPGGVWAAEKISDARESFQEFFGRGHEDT
Protocol: Systemic visceral AA amyloidosis was induced in H2-L^d-huIL-6 Tg Balb/c transgenic mice that constitutively express the human interleukin-6 transgene, by iv injection of 10 μg of purified, splenic AA amyloid (amyloid enhancing factor; AEF) in 100 μL of sterile phosphate-buffered saline (PBS). Peptide p66 pre-targeting of ^125I-11-1F4 was evaluated in mice at 3-4 wk post AEF injection when amyloid load was modest.
Three cohorts of 3 mice, each received ˜400 μg of unlabeled peptide p66, and a second group of 3 cohorts were given peptide p5+14 as a control. Twenty-four hours after the peptide injection all mice were administered ˜150 μCi (˜20 μg) of ^125I-11-1F4 IV in the lateral tail vein. One group of p66 mice (n=3) and one group of p5+14 control mice (n=3) were euthanized at 24, 48 and 72 h post injection of 11-1F4 mAb and the organs harvested at necropsy for fixation, followed by microautoradiographic and immunohistochemical analyses.
For autoradiography, 6-μm-thick sections were cut from formalin-fixed, paraffin-embedded blocks, containing tissues from mice that had received […]. The sections were placed on Plus microscope slides (Fisher Scientific), dipped in NTB-2 emulsion (Eastman Kodak), stored in the dark, and developed after a 4 day exposure. Each section was counterstained with hematoxylin and eosin.
Formalin-fixed paraffin embedded tissue sections, from mice treated with p66 peptope or peptide p5+14 were subjected to antigen retrieval using citrate buffer (pH 6; Dako) 30 min at 90° C. The tissue was then blocked with hydrogen peroxide, casein, and avidin and biotin, per manufacturer's instructions. The biotinylated peptide-reactive mAb (clone 12-3 [described above]) was then added (1.6 μg/mL in PBS) an the samples incubated for 2 h at RT, O/N at 4° C., followed by another 2 h period at RT. […]
The presence of macrophages was detected by staining with mAb Iba-1 (1:8000 diln) followed by addition of biotinylated rabbit anti-mouse secondary reagent (Vector Rabbit Elite kit). […]

[7] = biological target: T2, human transthyretin (TTR) amyloid-laden tissue (Homo sapiens, UniProt P02766); assay: Pre-targeting immunohistochemistry on ATTR-laden tissue sections; format: binding
T2 construct: from tissue
Protocol: The pre-targeting efficacy of peptide p5+14 in conjunction with mAb clones 4, 5, 12, or 13 was further evaluated using human ATTR-laden formalin-fixed paraffin embedded tissue sections. More particularly, six micrometer-thick sections, cut from formalin-fixed, paraffin embedded human transthyretin (TTR) amyloid-laden tissue, were subjected to antigen retrieval by incubation with CitraPlus (BioGenex, San Ramon, Calif.) for 30 min at 90° C. Peptide p5+14 was added to the tissue at ˜3 μg/mL (30× molar excess over mAb) and incubated overnight at 4° C. Unbound reagent was removed by washing in PBST for 30 min. Tissues (with or without p5+14) were immunostained with a 3 μg/mL solution of biotinylated anti-peptide mAb (clones 4, 5, 12, or 13). Slides were developed by addition of streptavidin-HRP (Vectastain Elite ABC kit, Vector Labs) followed by 3,3′-diaminobezidene (Vector Labs).
By way of positive control, a biotinylated-p5+14 peptide (without mAb) was used to directly stain TTR amyloid in this tissue (red arrows, below), as described above.
To confirm the presence and distribution of amyloid in the tissue a consecutive slide was stained with Congo red. Briefly, tissues were incubated in Congo red solution (0.8% w/v Congo red, 0.2% KOH w/v in 80% ethanol) for 1 h at RT. Sections were then washed in water and counterstained by suspending in Mayer's hematoxylin for 2 min. […]

| Substance | binding of 7D8 and biotinyl-7D8 [1] | immunohistochemical staining with biotinyl-7D8 [2] | immunohistochemical staining with biotinyl-7D8 [3] | immunohistochemical staining with biotinyl-7D8 ([4]; Gre ATTR, esophagus) | immunohistochemical staining with biotinyl-7D8 ([4]; Gre ATTR, heart) | immunohistochemical staining with biotinyl-7D8 ([4]; Ken ATTR, heart) | immunohistochemical staining with biotinyl-7D8 ([4]; Sno ATTR, heart) | binding of ^125I-peptide to amyloid samples ([5]; 0.15 M NaCl) | binding of ^125I-peptide to amyloid samples ([5]; 1.0 M NaCl) | co-localization of ^125I-11-1F4 with AA amyloid after peptide pre-targeting [6] | staining of ATTR amyloid by directly biotinylated peptide (no mAb) ([7]; compared with Congo red) | staining of ATTR amyloid, non-biotinylated peptide pre-targeting then biotinylated anti-peptide mAb ([7]; peptide ˜3 μg/mL, mAb clones 4, 5, 12, or 13 at 3 μg/mL) |
| --- | --- | --- | --- | --- | --- | --- | --- | --- | --- | --- | --- | --- |
| KAQKAQAKQAKQAQKAQKAQAKQAKQ (KAQKAQAKQAKQAQKAQKAQAKQAKQ; Peptide p5) | no binding | inhibited this effect | inhibited this effect | decreased | partially inhibited | background 7D8 staining was diminished | background 7D8 staining was diminished | – | – | – | – | – |
| KAQKAQAKQAKQAQKAQKAQAKQAKQAQKAQKAQAKQAKQ (KAQKAQAKQAKQAQKAQKAQAKQAKQAQKAQKAQAKQAKQ; Peptide p5+14) | – | – | – | – | – | – | – | bound equally well | bound equally well | little evidence of ^125I-11-1F4 co-localized with the amyloid | co-localizes with amyloid deposits | the amyloid was readily visualized |
